# From patent US9695133B2, “Quinazolinone-based oncogenic-RAS-selective lethal compounds and their use” (THE TRUSTEES OF COLUMBIA UNIVERSITY IN THE CITY OF NEW YORK, priority 2012, dated 2017)
# System: HT-1080 cells
# Test: Metabolite profiling (LC-MS/MS) upon erastin treatment
# Assay type: cell-based, human
# Details: 5 μg/mL erastin 5 h
# Protocol: 2 million HT-1080 cells were seeded in 10 cm culture dishes. […] 4 mL of cold 80% methanol was added to the cell monolayer to extract polar metabolites using a cell scraper. The cell lysate/methanol mixture was transferred to a 15 mL tube and centrifuged at 2,000×g at 4° C. for 10 minutes to pellet debris and proteins. The supernatant was transferred to a new tube and stored at −80° C. for liquid chromatography-mass spectrometry/mass spectrometry (LC-MS/MS) analysis. For lipid extract preparation, 3 mL of cold 100% isopropanol was added to the cell monolayer to scrape out cells. The resulting cell lysate/isopropanol mixture was transferred to a new 15 mL tube and centrifuged at 2,000×g at 4° C. for 10 minutes. The cleared supernatant was transferred to a new tube and stored at −20° C. for LC-MS/MS analysis.
# The metabolite extract was subjected to LC-MS/MS analysis to determine the quantity of each metabolite in each sample.
smiles,measurement,value
CCOc1ccccc1-n1c(C(C)N2CCN(C(=O)COc3ccc(Cl)cc3)CC2)nc2ccccc2c1=O (stereo not drawn) [erastin],C36:1 DAG Erastin/DMSO,0.9334
same,C36:1 DAG log2 (Erastin/DMSO),−0.09938
same,C36:1 PC Erastin/DMSO,0.6286
same,C36:1 PC log2 (Erastin/DMSO),−0.6697
same,C36:1 PE Erastin/DMSO,0.9953
same,C36:1 PE log2 (Erastin/DMSO),−0.006813
same,C36:2 DAG Erastin/DMSO,0.9163
same,C36:2 DAG log2 (Erastin/DMSO),−0.1261
same,C36:2 PC Erastin/DMSO,0.8729
same,C36:2 PC log2 (Erastin/DMSO),−0.1962
same,C36:2 PE Erastin/DMSO,0.9352
same,C36:2 PE log2 (Erastin/DMSO),−0.09672
same,C36:2 PI Erastin/DMSO,1.021
same,C36:2 PI log2 (Erastin/DMSO),0.02948
same,C36:3 DAG Erastin/DMSO,1.092
same,C36:3 DAG log2 (Erastin/DMSO),0.1266
same,C36:3 PC Erastin/DMSO,0.9251
same,C36:3 PC log2 (Erastin/DMSO),−0.1124
same,C36:4 PC Erastin/DMSO,0.9027
same,C36:4 PC log2 (Erastin/DMSO),−0.1477
same,C36:4 PI Erastin/DMSO,1.395
same,C36:4 PI log2 (Erastin/DMSO),0.4801
same,C38:2 PC Erastin/DMSO,0.8405
same,C38:2 PC log2 (Erastin/DMSO),−0.2507
same,C38:3 PC Erastin/DMSO,0.6597
same,C38:3 PC log2 (Erastin/DMSO),−0.6001
same,C38:4 PC Erastin/DMSO,0.6814
same,C38:4 PC log2 (Erastin/DMSO),−0.5533
same,C38:4 PI Erastin/DMSO,0.9823
same,C38:4 PI log2 (Erastin/DMSO),−0.02583
same,C38:5 PC Erastin/DMSO,0.8836
same,C38:5 PC log2 (Erastin/DMSO),−0.1786
same,C38:6 PC Erastin/DMSO,0.9708
same,C38:6 PC log2 (Erastin/DMSO),−0.0428
same,C44:0 TAG Erastin/DMSO,0.9683
same,C44:0 TAG log2 (Erastin/DMSO),−0.04648
same,C44:1 TAG Erastin/DMSO,1.639
same,C44:1 TAG log2 (Erastin/DMSO),0.7127
same,C46:0 TAG Erastin/DMSO,0.9424
same,C46:0 TAG log2 (Erastin/DMSO),−0.08557
same,C46:1 TAG Erastin/DMSO,1.171
same,C46:1 TAG log2 (Erastin/DMSO),0.2276
same,C46:2 TAG Erastin/DMSO,1.542
same,C46:2 TAG log2 (Erastin/DMSO),0.6247
same,C48:0 TAG Erastin/DMSO,1.098
same,C48:0 TAG log2 (Erastin/DMSO),0.1354
same,C48:1 TAG Erastin/DMSO,1.059
same,C48:1 TAG log2 (Erastin/DMSO),0.08209
same,C48:2 TAG Erastin/DMSO,1.121
same,C48:2 TAG log2 (Erastin/DMSO),0.1647
same,C48:3 TAG Erastin/DMSO,1.52
same,C48:3 TAG log2 (Erastin/DMSO),0.6042
same,C50:0 TAG Erastin/DMSO,0.9625
same,C50:0 TAG log2 (Erastin/DMSO),−0.05513
same,C50:1 TAG Erastin/DMSO,1.011
same,C50:1 TAG log2 (Erastin/DMSO),0.01634
same,C50:2 TAG Erastin/DMSO,1.073
same,C50:2 TAG log2 (Erastin/DMSO),0.1023
same,C50:3 TAG Erastin/DMSO,1.241
same,C50:3 TAG log2 (Erastin/DMSO),0.3115
same,C50:4 TAG Erastin/DMSO,1.682
same,C50:4 TAG log2 (Erastin/DMSO),0.7502
same,C50:5 TAG Erastin/DMSO,1.277
same,C50:5 TAG log2 (Erastin/DMSO),0.3528
same,C52:0 TAG Erastin/DMSO,1.041
same,C52:0 TAG log2 (Erastin/DMSO),0.05755
same,C52:1 TAG Erastin/DMSO,0.897
same,C52:1 TAG log2 (Erastin/DMSO),−0.1568
same,C52:2 TAG Erastin/DMSO,0.9964
same,C52:2 TAG log2 (Erastin/DMSO),−0.005196
same,C52:3 TAG Erastin/DMSO,1.124
same,C52:3 TAG log2 (Erastin/DMSO),0.168
same,C52:4 TAG Erastin/DMSO,1.305
same,C52:4 TAG log2 (Erastin/DMSO),0.3844
same,C52:5 TAG Erastin/DMSO,1.279
same,C52:5 TAG log2 (Erastin/DMSO),0.355
same,C52:6 TAG Erastin/DMSO,1.602
same,C52:6 TAG log2 (Erastin/DMSO),0.6796
same,C54:1 TAG Erastin/DMSO,0.8628
same,C54:1 TAG log2 (Erastin/DMSO),−0.2129
same,C54:2 TAG Erastin/DMSO,0.8696
same,C54:2 TAG log2 (Erastin/DMSO),−0.2016
same,C54:3 TAG Erastin/DMSO,0.9692
same,C54:3 TAG log2 (Erastin/DMSO),−0.04517
same,C54:4 TAG Erastin/DMSO,1.178
same,C54:4 TAG log2 (Erastin/DMSO),0.2363
same,C54:5 TAG Erastin/DMSO,1.315
same,C54:5 TAG log2 (Erastin/DMSO),0.3952
same,C54:6 TAG Erastin/DMSO,1.267
same,C54:6 TAG log2 (Erastin/DMSO),0.3411
same,C54:7 TAG Erastin/DMSO,1.062
same,C54:7 TAG log2 (Erastin/DMSO),0.08689
same,C54:8 TAG Erastin/DMSO,0.9067
same,C54:8 TAG log2 (Erastin/DMSO),−0.1413
same,C54:9 TAG Erastin/DMSO,1.331
same,C54:9 TAG log2 (Erastin/DMSO),0.4129
same,C54:10 TAG Erastin/DMSO,0.8851
same,C54:10 TAG log2 (Erastin/DMSO),−0.1761
same,C56:2 TAG Erastin/DMSO,0.9703
same,C56:2 TAG log2 (Erastin/DMSO),−0.04354
same,C56:3 TAG Erastin/DMSO,0.8103
same,C56:3 TAG log2 (Erastin/DMSO),−0.3035
same,C56:4 TAG Erastin/DMSO,0.9505
same,C56:4 TAG log2 (Erastin/DMSO),−0.07326
same,C56:5 TAG Erastin/DMSO,1.134
same,C56:5 TAG log2 (Erastin/DMSO),0.1814
same,C56:6 TAG Erastin/DMSO,1.047
same,C56:6 TAG log2 (Erastin/DMSO),0.06693
same,C56:7 TAG Erastin/DMSO,1.062
same,C56:7 TAG log2 (Erastin/DMSO),0.08653
same,C56:8 TAG Erastin/DMSO,1.178
same,C56:8 TAG log2 (Erastin/DMSO),0.2368
same,C56:9 TAG Erastin/DMSO,0.9865
same,C56:9 TAG log2 (Erastin/DMSO),−0.01961
same,C56:10 TAG Erastin/DMSO,0.9129
same,C56:10 TAG log2 (Erastin/DMSO),−0.1315
same,C58:6 TAG Erastin/DMSO,1.047
same,C58:6 TAG log2 (Erastin/DMSO),0.06641
same,C58:7 TAG Erastin/DMSO,1.071
same,C58:7 TAG log2 (Erastin/DMSO),0.09945
same,C58:8 TAG Erastin/DMSO,1.118
same,C58:8 TAG log2 (Erastin/DMSO),0.1603
same,C58:9 TAG Erastin/DMSO,1.176
same,C58:9 TAG log2 (Erastin/DMSO),0.2336
same,CMP Erastin/DMSO,0.9376
same,CMP log2 (Erastin/DMSO),−0.09295
same,DHAP Erastin/DMSO,1.227
same,DHAP log2 (Erastin/DMSO),0.2955
same,F1P Erastin/DMSO,0.9652
same,F1P log2 (Erastin/DMSO),−0.05103
same,F16DP/F26DP/G16DP Erastin/DMSO,1.303
same,F16DP/F26DP/G16DP log2 (Erastin/DMSO),0.3816
